{
  "source": "ChEMBL document CHEMBL3045700",
  "about": "“Synthesis and in vitro and in vivo antimalarial activity of novel 4-anilinoquinoline Mannich base derivatives” (2011)",
  "key": {"[1]": {"tested_on": "Plasmodium falciparum", "experiment": "Antimalarial activity against chloroquine-sensitive Plasmodium falciparum 3D7 assessed as inhibition of schizont maturation at 100 ug/ml after 36 to 40 hr incubation by Giemsa staining", "format": "functional"}, "[2]": {"tested_on": "Plasmodium falciparum", "experiment": "Antimalarial activity against chloroquine-sensitive Plasmodium falciparum 3D7 assessed as inhibition of schizont maturation at 50 ug/ml after 36 to 40 hr incubation by Giemsa staining", "format": "functional"}, "[3]": {"tested_on": "Plasmodium falciparum", "experiment": "Antimalarial activity against chloroquine-sensitive Plasmodium falciparum RKL-2 assessed as dead rings and schizonts at 100 ug/ml after 36 to 40 hr incubation by Giemsa staining", "format": "functional"}, "[4]": {"tested_on": "Plasmodium yoelii", "experiment": "Antimalarial activity against chloroquine-resistant Plasmodium yoelii infected Swiss mouse assessed as mouse showing nil parasitemia at 500 mg/kg, po qd for 4 days measured on day 4", "format": "functional, organism-based", "design": "dose 500 mg/kg"}, "[5]": {"tested_on": "Plasmodium yoelii", "experiment": "Antimalarial activity against chloroquine-resistant Plasmodium yoelii infected Swiss mouse assessed as mouse showing nil parasitemia at 500 mg/kg, po qd for 4 days measured on day 10", "format": "functional, organism-based", "design": "dose 500 mg/kg"}, "[6]": {"tested_on": "Plasmodium yoelii", "experiment": "Antimalarial activity against chloroquine-resistant Plasmodium yoelii infected Swiss mouse assessed as mouse showing nil parasitemia at 500 mg/kg, po qd for 4 days measured on day 7", "format": "functional, organism-based", "design": "dose 500 mg/kg"}, "[7]": {"tested_on": "Plasmodium yoelii", "experiment": "Antimalarial activity against chloroquine-resistant Plasmodium yoelii infected Swiss mouse assessed as suppression parasitemia at 500 mg/kg, po qd for 4 days", "format": "functional"}, "[8]": {"tested_on": "Plasmodium falciparum", "experiment": "Antimalarial activity against chloroquine-sensitive Plasmodium falciparum 3D7 assessed as inhibition of schizont maturation at 0.031 ug/ml after 36 to 40 hr incubation by Giemsa staining", "format": "functional"}, "[9]": {"tested_on": "Plasmodium falciparum", "experiment": "Antimalarial activity against chloroquine-sensitive Plasmodium falciparum 3D7 assessed as inhibition of schizont maturation at 0.063 ug/ml after 36 to 40 hr incubation by Giemsa staining", "format": "functional"}, "[10]": {"tested_on": "Plasmodium falciparum", "experiment": "Antimalarial activity against chloroquine-sensitive Plasmodium falciparum 3D7 assessed as inhibition of schizont maturation at 0.125 ug/ml after 36 to 40 hr incubation by Giemsa staining", "format": "functional"}, "[11]": {"tested_on": "Plasmodium falciparum", "experiment": "Antimalarial activity against chloroquine-sensitive Plasmodium falciparum 3D7 assessed as inhibition of schizont maturation at 0.25 ug/ml after 36 to 40 hr incubation by Giemsa staining", "format": "functional"}, "[12]": {"tested_on": "Plasmodium falciparum", "experiment": "Antimalarial activity against chloroquine-sensitive Plasmodium falciparum 3D7 assessed as inhibition of schizont maturation at 0.5 ug/ml after 36 to 40 hr incubation by Giemsa staining", "format": "functional"}, "[13]": {"tested_on": "Plasmodium falciparum", "experiment": "Antimalarial activity against chloroquine-sensitive Plasmodium falciparum 3D7 assessed as inhibition of schizont maturation at 1 ug/ml after 36 to 40 hr incubation by Giemsa staining", "format": "functional"}, "[14]": {"tested_on": "Plasmodium falciparum", "experiment": "Antimalarial activity against chloroquine-sensitive Plasmodium falciparum 3D7 assessed as inhibition of schizont maturation at 2 ug/ml after 36 to 40 hr incubation by Giemsa staining", "format": "functional"}, "[15]": {"tested_on": "Plasmodium falciparum", "experiment": "Antimalarial activity against chloroquine-sensitive Plasmodium falciparum 3D7 assessed as inhibition of schizont maturation at 10 ug/ml after 36 to 40 hr incubation by Giemsa staining", "format": "functional"}, "[16]": {"tested_on": "Plasmodium falciparum", "experiment": "Antimalarial activity against chloroquine-sensitive Plasmodium falciparum RKL-2 assessed as dead rings and schizonts at 0.4 ug/ml after 36 to 40 hr incubation by Giemsa staining", "format": "functional"}, "[17]": {"tested_on": "Plasmodium falciparum", "experiment": "Antimalarial activity against chloroquine-sensitive Plasmodium falciparum 3D7 assessed as inhibition of schizont maturation at 0.0625 ug/ml after 36 to 40 hr incubation by Giemsa staining", "format": "functional"}},
  "note": "The source made the active and inactive calls. The rule behind the calls is not given here.",
  "data": [
    {"compound": "Oc1ccc(Nc2ccnc3cc(Cl)ccc23)cc1CN(c1ccccc1)c1ccccc1", "values": [
      {"measurement": "inhibition at 100 µg/mL", "setting": "[1]", "value": 38.9, "unit": "%"},
      {"measurement": "inhibition at 50 µg/mL", "setting": "[2]", "value": 0.05, "unit": "%"}
    ]},
    {"compound": "CCCCN(CCCC)Cc1cc(Nc2ccnc3cc(Cl)ccc23)ccc1O", "values": [
      {"measurement": "Activity", "setting": "[3]", "value": 5, "unit": "%"}
    ]},
    {"compound": "Oc1ccc(Nc2ccnc3cc(Cl)ccc23)cc1CN1CCOCC1", "values": [
      {"measurement": "Activity", "setting": "[4]", "value": "Active"},
      {"measurement": "Activity", "setting": "[5]", "value": "Active"},
      {"measurement": "Activity", "setting": "[6]", "value": "Active"},
      {"measurement": "Activity", "setting": "[7]", "value": 100, "unit": "%"},
      {"measurement": "inhibition at 0.031 µg/mL", "setting": "[8]", "value": 73.3, "unit": "%"},
      {"measurement": "inhibition at 0.063 µg/mL", "setting": "[9]", "value": 100, "unit": "%"},
      {"measurement": "inhibition at 0.125 µg/mL", "setting": "[10]", "value": 100, "unit": "%"},
      {"measurement": "inhibition at 0.25 µg/mL", "setting": "[11]", "value": 100, "unit": "%"},
      {"measurement": "inhibition at 0.5 µg/mL", "setting": "[12]", "value": 100, "unit": "%"},
      {"measurement": "inhibition at 1 µg/mL", "setting": "[13]", "value": 100, "unit": "%"},
      {"measurement": "inhibition at 2 µg/mL", "setting": "[14]", "value": 100, "unit": "%"},
      {"measurement": "inhibition at 10 µg/mL", "setting": "[15]", "value": 100, "unit": "%"},
      {"measurement": "inhibition at 100 µg/mL", "setting": "[1]", "value": 100, "unit": "%"},
      {"measurement": "inhibition at 50 µg/mL", "setting": "[2]", "value": 100, "unit": "%"}
    ]},
    {"compound": "CC(C)NCc1cc(Nc2ccnc3cc(Cl)ccc23)ccc1O", "values": [
      {"measurement": "Activity", "setting": "[3]", "value": 6.5, "unit": "%"}
    ]},
    {"compound": "CCCCNCc1cc(Nc2ccnc3cc(Cl)ccc23)ccc1O", "values": [
      {"measurement": "inhibition at 1 µg/mL", "setting": "[13]", "value": 71.1, "unit": "%"},
      {"measurement": "inhibition at 2 µg/mL", "setting": "[14]", "value": 82.2, "unit": "%"},
      {"measurement": "inhibition at 10 µg/mL", "setting": "[15]", "value": 100, "unit": "%"},
      {"measurement": "inhibition at 100 µg/mL", "setting": "[1]", "value": 100, "unit": "%"},
      {"measurement": "inhibition at 50 µg/mL", "setting": "[2]", "value": 100, "unit": "%"}
    ]},
    {"compound": "CCN(CC)CCCC(C)Nc1ccnc2cc(Cl)ccc12", "note": "(stereo not given) [CHLOROQUINE]", "values": [
      {"measurement": "Activity", "setting": "[16]", "value": 54, "unit": "%"},
      {"measurement": "inhibition at 0.0625 µg/mL", "setting": "[17]", "value": 88.4, "unit": "%"},
      {"measurement": "inhibition at 0.125 µg/mL", "setting": "[10]", "value": 97.1, "unit": "%"},
      {"measurement": "inhibition at 0.25 µg/mL", "setting": "[11]", "value": 100, "unit": "%"},
      {"measurement": "inhibition at 0.5 µg/mL", "setting": "[12]", "value": 100, "unit": "%"}
    ]},
    {"compound": "CCCNCc1cc(Nc2ccnc3cc(Cl)ccc23)ccc1O", "values": [
      {"measurement": "Activity", "setting": "[3]", "value": 6.5, "unit": "%"}
    ]},
    {"compound": "CC(C)N(Cc1cc(Nc2ccnc3cc(Cl)ccc23)ccc1O)C(C)C", "values": [
      {"measurement": "Activity", "setting": "[3]", "value": 3, "unit": "%"}
    ]}
  ]
}
